Measured values as given in paper PMC2685736, “Conservation of a conformational switch in RadA recombinase from Methanococcus maripaludis” (Acta Crystallographica Section D: Biological Crystallography, 2009).

What was measured:
MmRadA [1] = molecular target: T1, MmRadA (Methanococcus maripaludis, UniProt P0CW58); assay: Malachite Green phosphate release (ATPase); assay type: biochemical; details: 5 mM ATP, 10 mM MgCl2, pH 7.4, 100 mM KCl, poly-(dT)36 ssDNA; mere turnover
T1 construct: gene radA; full open reading frame in pET28a (NcoI/XhoI), expressed in E. coli BL21 Rosetta2 (DE3); no tag mentioned; helical filament, nucleotide buried between adjacent monomers; P-loop Gly105-Thr112, His280, Asp302
T1 sequence (P0CW58 whole entry): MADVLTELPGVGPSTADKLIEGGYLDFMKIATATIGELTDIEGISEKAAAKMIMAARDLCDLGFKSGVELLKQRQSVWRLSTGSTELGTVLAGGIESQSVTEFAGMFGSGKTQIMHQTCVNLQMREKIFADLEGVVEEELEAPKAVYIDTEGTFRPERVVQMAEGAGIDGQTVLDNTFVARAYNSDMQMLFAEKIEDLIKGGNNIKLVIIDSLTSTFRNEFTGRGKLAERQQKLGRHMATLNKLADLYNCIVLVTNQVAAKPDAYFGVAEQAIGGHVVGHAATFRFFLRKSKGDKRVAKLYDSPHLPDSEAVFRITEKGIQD

MmRadA [2] = molecular target: T1, MmRadA; assay: X-ray crystallography, […]-2.[…] A; assay type: binding; details: Mg2+, pH 7.9; 0.4 M NH4Cl (3ewa), 0.4 M KCl (3ew9) or 0.1 M NH4Cl (3etl); ATPase site at the monomer interface

SMILES	Malachite Green phosphate release (ATPase) (MmRadA [1])	X-ray crystallography, 2.0-2.4 A (MmRadA [2])
Nc1ncnc2c1ncn2[C@@H]1O[C@H](COP(=O)(O)OP(=O)(O)OP(=O)(O)O)[C@@H](O)[C@H]1O [ATP]	the M. maripaludis protein also actively catalyzed ATP hydrolysis in the presence of potassium	–
Nc1ncnc2c1ncn2[C@@H]1O[C@H](COP(=O)(O)OP(=O)(O)NP(=O)(O)O)[C@@H](O)[C@H]1O [AMPPNP]	–	The nonhydrolyzable ATP analogue AMPPNP is buried between the MmRadA monomers as expected.
